Data from article PMC5573420, “Correlation between human ether‐a‐go‐go‐related gene channel inhibition and action potential prolongation” (British Journal of Pharmacology, 2017).
“Also recorded” adds a separate entry of the source.

How the values were obtained:
[1] = test system: hiPSC-CMs; assay: Optical measurement of action potential duration (APD90) in hiPSC-CMs using voltage-sensitive dye di-4-ANEPPS
Description: The plates were then incubated at 37°C, 5% CO2. Forty‐eight hours post‐thaw, 100% of the plating medium was replaced with CDI Maintenance Medium (CDI, CMC‐100‐120‐001), and further, 100% media changes were performed every 2 days after that.
Afterwards, the medium containing VSD was replaced by fresh serum‐free medium, and the cells were returned to the incubator. The multi‐well plate was placed in an environmentally controlled stage incubator (37°C, 5% CO2, water‐saturated air atmosphere) (Okolab Inc, Burlingame, CA, USA) of the CelIOPTIQ platform (Clyde Biosciences Ltd, Glasgow, Scotland). The di‐4‐ANEPPS fluorescence signal was recorded from a 0.2 × 0.2 mm area using a 40× (NA 0.6) objective lens. Excitation wavelength was 470 ± 10 nm using a light‐emitting diode (LED), and emitted light was collected by two photomultipliers (PMTs) at 510–560 and 590–650 nm respectively. LED, PMT, associated power supplies and amplifiers were supplied by Cairn Research Ltd (Kent, UK). […] A 20 s recording was then taken 30 min after exposure to the drug or vehicle with only one concentration applied per well. The records were subsequently analysed offline using proprietary software (CellOPTIQ). The procedure was repeated from four to five times, and parallel matched control (vehicle) measurements were taken on cardiomyocytes with equivalent concentrations of vehicle (DMSO). AP parameters were measured, including APD at 50, 75 and 90% repolarization (APD50, APD75 and APD90 respectively). Data are given as % change from control for the treated groups (vehicle, control and drug). This allowed a single comparison to be made at each concentration, and every experiment was performed with its own set of controls (vehicle). No data were used more than once.

[2] = target: hERG channels (Homo sapiens, UniProt Q12809); assay: hERG current inhibition, automated planar patch clamp in HEK293 cells stably expressing hERG
Chain of hERG channels (Q12809 whole entry): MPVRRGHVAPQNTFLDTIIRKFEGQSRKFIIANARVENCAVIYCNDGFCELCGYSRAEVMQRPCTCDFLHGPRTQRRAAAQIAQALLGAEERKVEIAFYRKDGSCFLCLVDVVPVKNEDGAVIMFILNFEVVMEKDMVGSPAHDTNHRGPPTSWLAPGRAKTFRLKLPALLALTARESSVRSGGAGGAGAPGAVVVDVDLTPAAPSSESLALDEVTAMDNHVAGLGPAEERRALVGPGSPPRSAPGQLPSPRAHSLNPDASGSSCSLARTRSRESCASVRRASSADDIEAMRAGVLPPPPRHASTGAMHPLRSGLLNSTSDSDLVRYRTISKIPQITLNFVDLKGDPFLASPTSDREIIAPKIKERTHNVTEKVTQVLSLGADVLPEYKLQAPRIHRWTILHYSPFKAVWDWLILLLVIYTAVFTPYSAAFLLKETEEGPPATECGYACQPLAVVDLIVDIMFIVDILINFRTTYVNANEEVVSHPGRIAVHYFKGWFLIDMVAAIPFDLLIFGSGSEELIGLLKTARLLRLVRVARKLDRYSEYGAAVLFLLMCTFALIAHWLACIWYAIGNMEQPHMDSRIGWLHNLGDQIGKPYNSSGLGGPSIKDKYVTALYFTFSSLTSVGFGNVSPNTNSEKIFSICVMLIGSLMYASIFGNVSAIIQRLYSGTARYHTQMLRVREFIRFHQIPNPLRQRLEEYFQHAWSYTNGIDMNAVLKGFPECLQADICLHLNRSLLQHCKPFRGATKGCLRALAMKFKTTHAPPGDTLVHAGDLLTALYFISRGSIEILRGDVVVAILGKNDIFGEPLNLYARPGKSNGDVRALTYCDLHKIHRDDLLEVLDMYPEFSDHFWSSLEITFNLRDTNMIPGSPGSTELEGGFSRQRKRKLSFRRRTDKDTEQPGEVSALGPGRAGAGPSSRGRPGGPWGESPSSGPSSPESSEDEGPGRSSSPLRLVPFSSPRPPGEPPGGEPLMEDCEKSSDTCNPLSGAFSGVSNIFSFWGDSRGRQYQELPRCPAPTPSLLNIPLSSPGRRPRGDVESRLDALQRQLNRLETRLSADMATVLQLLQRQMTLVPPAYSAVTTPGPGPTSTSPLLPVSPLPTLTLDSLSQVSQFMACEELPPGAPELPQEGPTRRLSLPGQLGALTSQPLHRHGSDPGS
Description: (§1) Currents were low‐pass filtered at 10 kHz using the internal Bessel filter and sampled at 25 kHz. The extracellular solution for hERG current recording contained 140 mM NaCl, 4 mM KCl, 2 mM CaCl2, 1 mM MgCl2,5 mM D‐glucose and 10 mM HEPES (pH 7.4) (Sigma‐Aldrich). The intracellular solution for hERG current recording contained 50 mM KCl, 10 mM NaCl, 60 mM KF, 20 mM EGTA and 10 mM HEPES (pH 7.2). The extracellular solution for measuring sodium currents in HEK cells stably expressing the human clone of Nav1.5 (GenBank M77235) contained 4 mM KCl, 20 mM NaCl, 1.8 mM CaCl2, 0.75 mM MgCl2, 5 mM HEPES, 120 mM choline chloride and pH 7.4 using NaOH. The intracellular solution for sodium current recording contained 120 mM CsF, 20 mM CsCl, 5 mM EGTA, 5 mM HEPES and pH 7.4 using CsOH. All chemicals were obtained from Sigma‐Aldrich Chemie GmbH (Taufkirchen, Germany). The compound solutions were applied by means of the automated NPC‐16 Patchliner planar patch‐clamp platform.
Data are presented as mean ± SEM for at least five cells from two different batches or for three independent measurements with HEK293 cells.
The concentration–inhibition relationships were analysed by plotting the normalized values of peak tail current versus peak tail steady current in the presence of the respective cumulatively applied compound concentrations (Figure 4B, C). Data points were fitted using Hill equation.

[3] = target: Cav1.2 (rabbit α1-subunit with β2a and α2-δ1) (Oryctolagus cuniculus, UniProt P15381); assay: Barium current (IBa) inhibition through Cav1.2 in transfected tsA-201 cells, manual patch clamp; conditions: rabbit, pH 7.4, Cav1.2 IC50 (peak IBa inhibition), 0.2 Hz, 50 ms pulses from -80 to +10 mV
Description: (§2) The transfection of tsA‐201 cells was performed using the FUGENE6 Transfection Reagent (Roche Diagonstics GmbH, Mannheim, Germany) following standard protocols. The tsA‐201 cells were used until passage number 15. […] The extracellular bath solution (in mM: BaCl2 20, MgCl2 1, HEPES 10, choline‐Cl 90) was titrated to pH 7.4 with methanesulfonic acid. […] The drugs were applied to cells under voltage clamp using a microminifold perfusion system. Ca^2+ channel block was estimated as peak IBa inhibition during a train of short (50 ms) test pulses from −80 mV at a frequency of 0.2 Hz. Patch clamp experiments to study hERG, Nav1.5 and Cav1.2 currents were performed at room temperature (22–25°C). All data were digitized and saved to disc. Current traces were filtered at 5 kHz and sampled at 10 kHz. The pClamp software package (Version 7.0 Axon Instruments, Inc.) was used for data acquisition and preliminary analysis. Microcal Origin 7.0 was used for analysis, and sigmoidal curves were fitted using the Hill equation.
(§3) Use‐dependent channel inhibition was studied during trains of 1 Hz and 50 ms test pulses (from −80 to +10 mV). After the application of 20 test pulses in control (absence of drug), the cells were incubated for 3 min with drug at rest. Peak current inhibition during the first pulse (1st, Figure 6C) in the presence of the drug reflects ‘resting state’ block. Additional current inhibition during a subsequently applied pulse train illustrates use‐dependent block. Peak current inhibition in control and drug are compared in Figure 6D.

[4] = target: rabbit CaV1.2 α1-subunit with β2a and α2-δ1 (Oryctolagus cuniculus, UniProt P15381); assay: as above
Description: as §2, §3

[5] = target: Nav1.5 (Homo sapiens, UniProt Q14524); assay: Sodium current inhibition in HEK cells stably expressing Nav1.5, planar patch clamp; conditions: for IC50: Nav1.5 IC50 (peak INa inhibition)
Chain of Nav1.5 (Q14524 whole entry): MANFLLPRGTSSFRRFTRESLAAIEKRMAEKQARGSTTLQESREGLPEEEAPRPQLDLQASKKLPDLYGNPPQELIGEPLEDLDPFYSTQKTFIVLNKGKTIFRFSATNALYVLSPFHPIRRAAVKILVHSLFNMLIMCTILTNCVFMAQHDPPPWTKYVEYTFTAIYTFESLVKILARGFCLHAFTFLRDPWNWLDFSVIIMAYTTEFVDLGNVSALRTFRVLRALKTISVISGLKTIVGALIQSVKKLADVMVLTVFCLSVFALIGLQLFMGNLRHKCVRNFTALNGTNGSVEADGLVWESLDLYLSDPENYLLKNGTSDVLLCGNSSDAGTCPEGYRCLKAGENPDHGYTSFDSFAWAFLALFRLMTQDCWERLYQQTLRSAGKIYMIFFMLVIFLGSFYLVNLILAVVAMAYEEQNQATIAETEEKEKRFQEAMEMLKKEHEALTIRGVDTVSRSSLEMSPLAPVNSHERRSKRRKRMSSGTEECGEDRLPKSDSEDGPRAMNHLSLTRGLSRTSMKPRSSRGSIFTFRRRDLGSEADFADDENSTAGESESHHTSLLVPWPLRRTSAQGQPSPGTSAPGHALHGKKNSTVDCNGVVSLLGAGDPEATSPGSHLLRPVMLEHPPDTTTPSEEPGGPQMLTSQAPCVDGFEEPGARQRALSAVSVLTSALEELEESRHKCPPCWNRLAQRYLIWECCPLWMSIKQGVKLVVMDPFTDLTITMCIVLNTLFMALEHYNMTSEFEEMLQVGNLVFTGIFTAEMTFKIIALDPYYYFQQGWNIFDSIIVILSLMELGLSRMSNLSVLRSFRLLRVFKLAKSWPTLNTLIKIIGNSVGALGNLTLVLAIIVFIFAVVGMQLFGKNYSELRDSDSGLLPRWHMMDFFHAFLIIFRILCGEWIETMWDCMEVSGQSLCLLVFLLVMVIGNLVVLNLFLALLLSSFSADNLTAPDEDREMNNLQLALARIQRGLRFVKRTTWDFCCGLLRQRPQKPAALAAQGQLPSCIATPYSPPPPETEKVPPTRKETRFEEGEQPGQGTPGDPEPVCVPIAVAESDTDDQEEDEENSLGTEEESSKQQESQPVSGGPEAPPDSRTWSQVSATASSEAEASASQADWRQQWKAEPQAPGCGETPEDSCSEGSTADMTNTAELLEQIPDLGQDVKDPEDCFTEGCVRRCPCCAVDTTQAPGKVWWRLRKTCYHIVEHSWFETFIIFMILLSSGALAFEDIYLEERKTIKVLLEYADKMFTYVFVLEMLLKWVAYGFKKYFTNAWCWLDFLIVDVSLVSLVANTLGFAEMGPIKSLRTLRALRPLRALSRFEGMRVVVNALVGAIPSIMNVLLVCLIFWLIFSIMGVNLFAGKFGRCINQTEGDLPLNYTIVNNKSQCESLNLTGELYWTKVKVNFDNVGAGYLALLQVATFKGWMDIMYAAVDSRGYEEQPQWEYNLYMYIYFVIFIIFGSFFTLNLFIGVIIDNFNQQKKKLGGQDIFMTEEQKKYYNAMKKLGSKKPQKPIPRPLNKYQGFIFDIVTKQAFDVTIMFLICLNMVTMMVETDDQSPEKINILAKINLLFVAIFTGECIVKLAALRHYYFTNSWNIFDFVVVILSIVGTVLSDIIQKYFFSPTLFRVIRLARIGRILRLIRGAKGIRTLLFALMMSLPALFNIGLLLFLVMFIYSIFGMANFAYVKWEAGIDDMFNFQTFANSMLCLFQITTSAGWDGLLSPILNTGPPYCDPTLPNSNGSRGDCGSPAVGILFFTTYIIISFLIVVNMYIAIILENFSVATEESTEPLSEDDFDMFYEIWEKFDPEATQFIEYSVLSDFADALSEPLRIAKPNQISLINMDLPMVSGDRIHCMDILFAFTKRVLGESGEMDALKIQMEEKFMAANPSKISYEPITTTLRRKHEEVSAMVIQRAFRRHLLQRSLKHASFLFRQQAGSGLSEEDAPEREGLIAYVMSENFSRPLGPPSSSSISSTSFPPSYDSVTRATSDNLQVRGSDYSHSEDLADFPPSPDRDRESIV
Description: as §1

[6] = test system: hERG potassium channels; conditions: read-out: Ki binding studies; radioligand binding; ref Shagufta et al 2009; cited from earlier work
[7] = Homo sapiens, 0.5 h, read-out: Changes in APD90 in hiPSC-CMs

COc1ccc(OCCN(C)CCc2ccccc2)cc1 [Dofe42]
activity at 0.01 µM [1, 7]: 113% | activity at 0.1 µM [1, 7]: 92% | activity at 0.3 µM [1, 7]: 95% | activity at 1 µM [1, 7]: 98% | EC (50% APD prolongation) ([1]; Homo sapiens, read-out: D150 (concentration that prolongs the AP by 50%), APD90 in hiPSC-CMs): > 0.6 µM | Effect on APD90 / AP prolongation (in words) ([1]; hiPSC-CMs): did not affect APD90 even at 1 μM; also recorded: did not induce prolongation of AP | IC50 [2]: 0.213 ± 0.0835 µM | IC50 [3]: 38 ± 9.3 µM | Peak current decay after 20 pulses at 1 Hz (use-dependent block) ([4]; 100 μM, 50 ms pulses from -80 to +10 mV, control 12 ± 2%): 38 ± 2% | Resting state and use-dependent block of Cav1.2 ([4]; 1 Hz trains of 50 ms pulses after 3 min incubation at rest): pronounced resting state block and additional use‐dependent block | Shift of Nav1.5 concentration-response curve towards lower concentrations ([5]; -80 mV versus -140 mV holding potential): 5.6 fold | IC50 ([5]; holding potential -80 mV): 13.8 ± 1.9 µM | IC50 ([5]; holding potential -140 mV, 0.2 Hz): 77.9 ± 9.7 µM | Ki [6]: 0.0033 ± 0.002 µM
